The values that follow come from patent US10588902B2, “Camptothecin derivatives as anti-HIV agents and methods of identifying agents that disrupt Vif self-association” (OyaGen, Inc., priority 2013, dated 2020).

The conditions of data set [1]: PubChem BioAssays; cited from earlier work.
Another data set relates to A3.01 cells. The data set can be described thus: cell cycle test (propidium iodide, flow cytometry). The class given is cell-based. Particulars: for G2 block: CPT 0.2 μM, OYA002-16 0.2 and 0.4 μM. As to the method:
FIGS. 9A and 9B illustrate results of an in vitro drug screening assay for toxicity of the OYA002-16 small molecule of the present invention. […] After 24 hours of compound treatment cells were fixed in methanol and treated with propidium iodide (PI) to stain the cellular DNA in A3.01 cells (a CEM derived T-cell line). Flow cytometry of the cells can detect if the cells are in the G1 S or G2 phase of mitosis based on amount of PI staining in each cell.
(Flow cytometry measures light scatter and fluorescence of single cells or particles in a stream.)

The next data set has as its target T1, Topo1 (Homo sapiens, UniProt P11387).
T1 construct: purchased Topogen
T1 sequence (P11387 1-765): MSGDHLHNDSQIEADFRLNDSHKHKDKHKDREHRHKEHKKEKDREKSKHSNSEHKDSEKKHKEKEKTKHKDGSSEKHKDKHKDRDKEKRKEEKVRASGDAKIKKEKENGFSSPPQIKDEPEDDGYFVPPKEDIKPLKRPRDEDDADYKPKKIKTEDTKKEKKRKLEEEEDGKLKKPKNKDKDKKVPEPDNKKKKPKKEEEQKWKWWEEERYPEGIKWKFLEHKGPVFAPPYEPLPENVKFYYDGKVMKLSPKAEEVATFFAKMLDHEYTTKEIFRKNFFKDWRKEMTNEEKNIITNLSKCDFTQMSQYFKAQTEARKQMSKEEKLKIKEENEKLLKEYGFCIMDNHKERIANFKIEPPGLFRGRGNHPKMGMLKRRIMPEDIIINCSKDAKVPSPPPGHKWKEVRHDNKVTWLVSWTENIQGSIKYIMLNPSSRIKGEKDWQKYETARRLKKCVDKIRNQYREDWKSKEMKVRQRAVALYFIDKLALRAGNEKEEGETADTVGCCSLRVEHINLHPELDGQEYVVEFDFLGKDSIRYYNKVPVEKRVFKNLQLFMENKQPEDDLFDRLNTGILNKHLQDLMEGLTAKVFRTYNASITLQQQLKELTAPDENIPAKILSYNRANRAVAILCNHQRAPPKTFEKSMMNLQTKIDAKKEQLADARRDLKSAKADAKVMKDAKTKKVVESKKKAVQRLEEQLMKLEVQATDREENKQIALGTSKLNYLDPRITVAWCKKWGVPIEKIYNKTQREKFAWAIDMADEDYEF
The experiment in a line: in vitro Topo1 drug screening assay (Topogen). The class given is biochemical. As to conditions: increasing amounts, compared to the 0 chem control.

Data set [2] relates to Vif-dependent A3G degradation. The experiment in a line: in-cell secondary screen for Vif-dependent A3G degradation (A3G-mCherry 293T cells). The class given is cell-based. Particulars: compared to +Vif (0%) and −Vif (100%) controls. As for the experimental part:
FIG. 10 illustrates in-cell secondary screen fro Vif-dependent A3G degradation. […] 50 ng of Vif was transiently transfected into the cells in 384-well format with Turbofect. 4 hours after transfection the chemistries were added to cells. 24 hours after chemistries were added the mCherry signal was read on a Biotek Synergy 4 plate reader. The signal from plated cells not transfected with Vif was averaged and set at 100% (left image), and cells transfected with Vif and treated with DMSO only were averaged and set at 0% (right image). A chemistry that inhibits Vif's ability to chaperone A3G to the proteasomal degradation pathway would result in an increased mCherry signal compared to the DMSO only control, and any signal that is much higher than the no-Vif positive control is likely to be due to autofluorescence from the chemistry itself.
The primary screen is represented as a change in RFU over the quenched control (ARFU). The secondary screen is compared to the +Vif (0%) and −Vif (100%) controls as described in FIG. 10.

A further data set deals with A3G in viral particles. The experiment in a line: A3G viral particle content (western blot of purified viral particles). The class given is cell-based. As to conditions: p24 normalized. The text has this:
Perform ‘hit’ validation assays to confirm that small molecules selected by the primary and secondary screens have antiviral activity through their antagonism of Vif self-association. Antiviral activity will be validated for each compound with a luciferase viral infectivity reporter assay using infected TZM-bl cells in microtiter plate format. Each compound's ability to inhibit Vif-Vif interaction will be evaluated by co-immunoprecipitation.
Another way to observe target specificity is by looking at the amount of A3G that is encapsulated into the viral particle. Since Vif blocks A3G from getting into the virus, more A3G should be present in viral particles isolated from cells dosed with a small molecule that disables Vif's function.
A general note: In western blotting, separated proteins are transferred to a membrane and probed.

A further data set is described as follows: solubility in Lac-Buffer. As to conditions: 37 °C, thermodynamic from solid. Format: physicochemical. As for the experimental part:
Solubility: 0.7 mg of OYA002-16 was suspended in 100.8 μl Lac-Buffer pH 4.5 or pH 7.4, vortexed for 10 min and warmed-up at 37° C. for 10 min, sonicated for 5 min and vortexed again for 10 min and centrifuged for 10 min. Supernatant was directly injected for concentration measurement. pH 7.4 Solubility: 65-72 μM by UV, 58-63 μM by CLND. pH 4.5 Solubility: 74-92 μM by UV, 74 μM by CLND.
(§1) HPLC conditions used for the experiments were as follows: Column: Luna C-18, 150×4.6 from Phenomenex. Eluent: 42% aqueous CAN with 0.75 mM NH4OAc, pH=6.8. Detection: UV at 254 nm. Temperature: 35° C. Flow: 1.5 mL/min. Injection: 20 uL (solubility, freeze/thaw) or 200 uL (stability).

The next data set relates to HepG2 cells. The data set can be described thus: high content imaging toxicity study, HepG2. The class given is cell-based. As to the method:
(§2) All cells are plated on 384-well collagen-coated, tissue culture-treated black walled clear bottomed polystyrene plates. Rat hepatocytes are seeded and dosed on the day they are harvested. Dosing takes place after attachment to the plate. They are treated with test compound at a 10 point dose range of concentrations and incubated for 24 and 48 hrs. HepG2 cells are seeded on the day prior to dosing and are treated with test compound at a 10 point dose range of concentrations and incubated for 24 and 72 hours. At the end of the incubation period, the cells are loaded with the relevant dye/antibody for each cell health marker. The plates are then scanned using an automated High Content Imager, Array Scan® VTI (Thermo Fisher Cellomics). The GSH, ROS, and 5 day toxicity assays were run at 1 time point, 18 hours post-dosing for GSH, 4 hr post-dose for ROS, and 5 days post-drug treatment for the 5 day assay.

A short description of data set [3]: stability test after 3 freeze/thaw cycles. The class given is physicochemical. As for the experimental part:
For each compound, an aliquot of the stock solution (250 uM in DMSO) was frozen for 24 hrs at −80° C. and thawed for 1 hr, 3 times, then diluted 10 times in 40% CAN and analyzed by HPLC.
as §1

A short description of data set [4]: stability test in PBS buffer. The class given is physicochemical. As to conditions: after 48 h in PBS. As for the experimental part:
For each compound, a 0.250 uM stock solution in DMSO was prepared and sonicated until clear. Then, for each stability test, the cpd was formulated by adding 10 uL of the stock solution to 990 uL of PBS buffer, pH 7.0 and then a 200 uL aliquot was incubated 37° C. for 24 or 48 hrs.
as §1

Another data set relates to 885 bp region of Pol. The data set can be described thus: Next Gen Sequencing for A3G signature mutation profiles. The class given is cell-based, HIV. The text has this: FIG. 14 is an illustration relating to a Next Gen Sequencing for A3G signature mutation profiles. Next Gen Sequencing with the Ion Torrent platform was used to sequence over 27 million bases for each sample. An 885 bp region of Pol was nested PCR amplified from genomic DNA isolated from TZM-bl cells infected in the previous Figures with −Vif virus+A3G (Positive Control) and +Vif virus+A3G & OYA002-16 (OYA002-16) and −Vif−A3G & OYA002-16 (Negative Control). There were 60 possible A3G “GG” signature mutation sites (A3G mediated single-stranded DNA mutations occur preferentially at the 3′ C of CC dinucleotide pairs) in the region sequenced. 34 sites were mutated at a rate of 15- to 339-fold over the background mutation rate for the Positive Control. 34 sites were mutated at a rate of 48 to 200-fold over background for the OYA002-16 sample. 21 sites overlapped between the two.

In another data set the target is T2, Vif:Vif complex (Human immunodeficiency virus type 1 group M subtype B, UniProt P12504).
T2 construct: expressed in transfected cells; host or cells: HEK 293T cells, transient co-transfection of two plasmids
Format: cell-based, HIV. As to conditions: change in RFU over the quenched control.

A further data set deals with pseudotyped HIV. The data set can be described thus: single round infectivity assay with pseudotyped HIV (TZM-bl luciferase reporter cells). Format: cell-based. Particulars: up to 33.3 μM, +/−Vif, +/−A3G.
Data set [5] concerns rat hepatocytes and HepG2 cells. The data set can be described thus: high content imaging toxicity study, all tested cell types. The class given is cell-based. As for the experimental part:
as §2

SMILES strings stand for the structures. Values after ≈ are worked out from the molar mass of the structure shown.

T2 sequence (P12504 whole entry, one chain of several): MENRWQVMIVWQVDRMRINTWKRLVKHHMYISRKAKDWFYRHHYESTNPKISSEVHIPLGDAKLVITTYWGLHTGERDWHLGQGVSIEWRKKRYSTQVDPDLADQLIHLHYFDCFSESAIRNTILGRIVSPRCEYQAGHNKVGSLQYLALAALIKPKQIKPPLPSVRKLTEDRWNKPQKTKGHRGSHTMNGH
Excerpt for Vif:Vif complex: EGFP-V5-Vif (the fluorescence donor) and Vif-HA-REACh2 (the acceptor and non-fluorescent YFP variant that quenches EGFP fluorescence) will be co-expressed in HEK 293T cells. Compounds that dissociate Vif multimers will induce EGFP fluorescence making this a positive screen for small molecules that disrupt Vif self-association.
EGFP is a FRET donor and REACh2 (Resonance Energy Accepting Chromoprotein 2) is a non-fluorescent FRET acceptor (54). The non-fluorescent REACh2 is able to quench EGFP signal in a distance-dependent manner when they are linked to interacting domains. However, if there is no interaction, EGFP and REACh2 are not proximal and quenching will not occur. […]
EGFP-V5-Vif alone has a strong baseline fluorescence. […]
Experimentals relating to adapting the quenched FRET assay to 96-well and 384-well format are set forth below: • Description of reagents and readouts: We are currently capable of screening small libraries in 96-well format, and have optimized transfections for 384-well format. […] REACh2 is a non-fluorescent YFP variant that quenches EGFP through FRET, so in the default state Vif dimerizes and the EGFP signal is quenched, a compound that affects the interaction will cause an increase in fluorescence due to lack of FRET from interacting proteins (aka “releasing of the quench”). Our read out is fluorescence at GFP's excitation and emission in a PE Victor 3 plate reader. […]
Description for pseudotyped HIV: The antiviral activity of the hits in a single round infection with psuedotyped HIV was assessed. […] The wildtype HIV proviral vector codes for all HIV genes except nef (replaced with EGFP) and env. The delta Vif proviral vector is identical to wildtype except that it contains a stop codon early within the vif gene. […] Alternatively, in the absence of A3G, both wild type and Delta Vif viruses should have good infectivity.
Transfecting the coat protein on a separate vector, allows for only a single round of infection. […] Viral load was normalized with a p24 ELISA Kit (Zeptometrix, Buffalo, N.Y.). Equal viral loads were then added in triplicate to TZM-bl reporter cells that express luciferase from the HIV-LTR promoter. 48 hours after infection luciferase levels were assessed with Steady-Glo reagent (Promega).
The antiviral activity of the hits in a single-round infection with pseudotyped HIV were conducted using HEK293T producer cells +/−A3G and viruses that are +/−Vif. […]
The infections utilized TZM-bl reporter cells that contain stably integrated luciferase that is driven by the HIV-LTR promoter, therefore luciferase is expressed upon successful HIV infection. […] Luminescence was measured as a quantitative metric for changes in infectivity with each compound as compared to controls, in which relative luminescence units (RLU) with no compounds are set to 100%.

As for `CC[C@@]1(O)C(=O)OCc2c1cc1n(c2=O)Cc2cc3c(NC(=O)CN)cccc3nc2-1` [9-glycineamido-20(S)-CPT], in data set [1], the “active in Anti-Cancer Screens at NCI” value is recorded as 37 of 76.
As to `CC[C@@]1(O)C(=O)OCc2c1cc1n(c2=O)Cc2cc3ccccc3nc2-1` [CPT, Camptothecin], the G2 block result in the data set on A3.01 cells (24 hours) is given as “strong G2 block”. The “open nicked circles of plasmid DNA (Topo1 poisoning)” value at Topo1 is listed as “trap plasmid DNA into open nicked circles”.
`CC[C@@]1(O)C(=O)NCc2c1cc1n(c2=O)Cc2cc3ccccc3nc2-1` [OYA002-16, Lactam-CPT]: the “dose dependence in secondary screen (mCherry signal)” value in data set [2] is “dose dependence”. Also, in the data set with A3G in viral particles, the “A3G in viral particles” value is given as “increases A3G in viral particles”. The solubility at 35 min is 74 µM (≈ 25.7 µg/mL) in “solubility in Lac-Buffer” (pH 4.5, aqueous buffer, pH 4.5, by CLND); 74 to 92 µM (≈ 25.7 to 32 µg/mL) in “solubility in Lac-Buffer” (pH 4.5, aqueous buffer, pH 4.5, by UV); 58 to 63 µM (≈ 20.1 to 21.9 µg/mL) in the data set “solubility in Lac-Buffer” (pH 7.4, aqueous buffer, pH 7.4, by CLND); 65 to 72 µM (≈ 22.6 to 25 µg/mL) in the data set “solubility in Lac-Buffer” (pH 7.4, aqueous buffer, pH 7.4, by UV). Moreover, the Cytostasis result with HepG2 cells is “largest effect”. Further, the stable in data set [3] and in data set [4] was 100% each time. For the same compound, in the data set with 885 bp region of Pol, the “mutated sites overlapping with Positive Control” value was found to be 21 sites. The “A3G signature mutation sites mutated” value with 885 bp region of Pol (+Vif virus +A3G, 60 possible sites) turned out to be 34 sites. Besides, the cell cycle effects result in the data set on A3.01 cells is “minimal cell cycle effects”. In addition, the “cells in G2” value in the data set with A3.01 cells (0.2 and 0.4 μM, 24 hours, DMSO control 17%) stood at 22%. For the same compound, the G2 block result with A3.01 cells (24 hours) is on record as “minimal amount of G2 block”. Further, the “dose dependence in primary screen” value on Vif:Vif complex is on record as “dose dependence”. In addition, the “antiviral effect in single cycle HIV infectivity” value in the data set with pseudotyped HIV is “dose dependent antiviral effect only when Vif and A3G were expressed”. Besides, the “Stress and Apoptosis assays” value in data set [5] is “minimal effect”. The Viability tests result in [5] is on record as “minimal effect”. Besides, the “open nicked circles of plasmid DNA (Topo1 poisoning)” value on Topo1 is listed as “no increase in open nicked circles”.
As for `CC[C@@]1(O)C(=O)OCc2c1cc1n(c2=O)Cc2cc3c(CN(C)C)c(O)ccc3nc2-1` [Topotecan], the “active in Anti-Cancer Screens at NCI” value in data set [1] is listed as “active in most”.
For the compound `CC[C@H]1C(=O)OCc2c1cc1n(c2=O)Cc2cc3ccccc3nc2-1` [deoxy-CPT], in data set [1], the “active in Anti-Cancer Screens at NCI” value was 4 of 68.

For orientation: solubility means the concentration that dissolves in the medium under given conditions.
